Laboratory results reported in patent US9023370B2, “Conjugates comprising nanoparticles coated with platinum containing compounds” (priority 2008, dated 2015).

What was measured:
A549 lung tumoral cells = assay: Animal assay: tumour size; format: in vivo; conditions: SCID mice, A549 flank tumours, fifteen days; cisplatin 30 mg per Kg; example 4.1 100 ml of 1.9 mg platinum drug per litre, one intra-peritoneal dose
Description: (§1) Fifteen SCID mice were choosen for the in vivo experiment. Mouse were injected 20 106 A549 lung tumoral cells in their flanks. Three random groups of five mice each were prepared. Then we waited until the tumour grew to an easily measurable size. The first group (A) was given no treatment. The second group (B) was given mild doses of commercial cisplatin (30 mg per Kg animal weight). The third group (C) was treated with the conjugates of example 4.1 with […] of 1.9 mg of platinum drug per litre in one intra-peritoneal dose. Tumour size (as a sign of therapeutical success) and animal weight (as a sign of secondary effects) were measured every three days. After fifteen days the experiments were stopped.

[1] = parameters: species or system SCID mice; conditions: mouse, in vivo
Description: as §1

A549 tumor cells = assay: MTT assay of the conjugates in tumoral cells; format: cell-based, human; conditions: 48 h
Description: Cells were plated in a multiwell-96 plate (Iwaki) at 4×10^3 cells/well and 24 hours later the medium was changed for treatments. Tetrazolium salt 3-(4,5-dimethylthiazol-2-yl)-2,5-diphenyltetrazoliumbromide (MTT, Acros Organics) was used for mitochondrial activity evaluation in cell viability studies 24 and 48 hours post-treatments. Plates were measured in MicroPlate Reader Model 550 (BIO-RAD) and data were processed with Excel and SPSS software. Using absorbance measurements [time zero, (Az), control growth, (C), and test growth in the presence of drug at the various concentration levels (Ai)], the percentage growth was calculated at each of the drug concentration levels. The assays were done with three cellular cancer lines: HeLa, A549 and HEK.
A and G represent the control values at 0 and 48 h respectively.

[2] = Stability: platinum drug release after incubation, quantified by ICP-MS; format: physicochemical; conditions: 48 h incubation with cellular medium at 37° C.
Description: The stability of these conjugates was compared with the stability of the conjugates of the invention. […] The stability tests were based on inductively coupled plasma mass spectroscopy ICP-MS quantifications of platinum drug release after incubation of both systems.

[3] = Zeta potential of nanoparticles and conjugates; format: physicochemical; conditions: pH 7.0
Description: The zeta potential of nanoparticles and conjugates was determined using a Malvern ZetaSizer Analyzer (Malvern Instruments, UK). These measurements were performed with control of the pH (7.0).

N.N.[Cl][Pt][Cl] [commercial cisplatin, cisplatin, reference compound]
tumour size (A549 lung tumoral cells): reduction of tumour size
animal weight (sign of secondary effects) [1]: loose of body weight
kidney and hepatic dysfunction (preliminary biochemical measurements) [1]: did not indicate any kidney and hepatic significant dysfunction

N.N.O.O.O=[N+]([O-])[O-].O=[N+]([O-])[O-].[Pt+2] [example 3, cis-[Pt(NH3)2(H2O)2](NO3)2]
effect on A549 lung tumoral cells viability (MTT) (A549 tumor cells): did not elicit any response

AuNP(NP:4 nm)-MUA-cisplatin [example 5, reference compound]
release of platinum drug from the nanoparticle [2]: release of platinum drug from the nanoparticle was only observed

AuNP(NP:13 nm)-MUA [example 2.1]
ζ-potential [3]: −65.8 mV
effect on A549 lung tumoral cells viability (MTT) (A549 tumor cells): did not elicit any response
